Results on six compounds are retold here after patent US20120225848A1, “Antagonists of GABA-B Receptors to Enhance Neuronal Function, Learning and Memory” (priority 2009, published 2012).

The test system of one data set is Ts65Dn hippocampal LTP. To be noted: in vitro system; Kleschevnikov 2004; cited from earlier work.
A further data set deals with mRNAs for NGF and BDNF. To be noted: Heese et al., 2000; cited from earlier work.
Data set [1] relates to dentate gyrus (DG) of hippocampal slices. Put plainly: LTP of evoked field potentials in dentate gyrus of hippocampal slices. It counts as cell-based, mouse.
For data set [2], the target named is T1, Kir3.2-containing potassium channels (Homo sapiens, UniProt P48051).
T1 sequence (P48051 1-423): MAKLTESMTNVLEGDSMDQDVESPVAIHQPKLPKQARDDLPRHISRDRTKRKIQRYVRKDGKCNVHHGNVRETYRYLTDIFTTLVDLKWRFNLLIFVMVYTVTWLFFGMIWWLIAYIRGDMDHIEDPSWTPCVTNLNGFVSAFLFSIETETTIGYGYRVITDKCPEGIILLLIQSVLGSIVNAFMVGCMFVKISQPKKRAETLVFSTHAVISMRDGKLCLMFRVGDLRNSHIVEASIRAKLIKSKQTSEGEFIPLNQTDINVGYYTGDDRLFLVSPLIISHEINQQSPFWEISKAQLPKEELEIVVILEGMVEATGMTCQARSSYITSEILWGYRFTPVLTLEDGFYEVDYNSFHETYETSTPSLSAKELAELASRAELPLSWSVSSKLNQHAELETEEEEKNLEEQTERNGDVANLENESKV
To be noted: Kobayashi et al., 2004; read-out: IC50 for block of Kir3.2 channels; cited from earlier work.

A further data set deals with GABAB receptor (Homo sapiens, UniProt Q9UBS5). To be noted: 1 μM; baclofen 5-10 μM; cited from earlier work.
GABAB receptor, sequence (Q9UBS5 20-961): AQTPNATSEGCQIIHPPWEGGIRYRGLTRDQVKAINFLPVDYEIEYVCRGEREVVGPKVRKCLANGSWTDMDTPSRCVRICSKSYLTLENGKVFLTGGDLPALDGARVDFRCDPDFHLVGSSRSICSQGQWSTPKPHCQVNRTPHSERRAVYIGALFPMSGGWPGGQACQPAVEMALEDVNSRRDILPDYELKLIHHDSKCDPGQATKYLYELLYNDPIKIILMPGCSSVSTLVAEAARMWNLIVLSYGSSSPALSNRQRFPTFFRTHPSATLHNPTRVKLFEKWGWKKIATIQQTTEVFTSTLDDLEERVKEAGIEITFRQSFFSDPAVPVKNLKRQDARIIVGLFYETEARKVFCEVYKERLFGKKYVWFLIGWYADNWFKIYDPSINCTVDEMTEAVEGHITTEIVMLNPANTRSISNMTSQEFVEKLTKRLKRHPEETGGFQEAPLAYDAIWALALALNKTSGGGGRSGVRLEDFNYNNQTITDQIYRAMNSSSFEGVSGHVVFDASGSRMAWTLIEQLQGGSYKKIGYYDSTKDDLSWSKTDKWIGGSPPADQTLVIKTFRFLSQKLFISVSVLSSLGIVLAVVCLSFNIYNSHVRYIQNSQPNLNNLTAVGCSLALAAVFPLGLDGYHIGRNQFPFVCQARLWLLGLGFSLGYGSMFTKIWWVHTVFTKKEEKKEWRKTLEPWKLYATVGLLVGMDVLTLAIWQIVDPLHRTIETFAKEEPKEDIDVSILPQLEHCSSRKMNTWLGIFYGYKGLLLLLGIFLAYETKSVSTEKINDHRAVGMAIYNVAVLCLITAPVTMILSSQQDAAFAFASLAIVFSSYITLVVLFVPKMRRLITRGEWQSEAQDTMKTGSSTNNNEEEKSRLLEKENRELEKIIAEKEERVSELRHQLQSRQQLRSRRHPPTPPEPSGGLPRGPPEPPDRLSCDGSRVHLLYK
GABAB receptor, sequence (O75899 42-941 partner): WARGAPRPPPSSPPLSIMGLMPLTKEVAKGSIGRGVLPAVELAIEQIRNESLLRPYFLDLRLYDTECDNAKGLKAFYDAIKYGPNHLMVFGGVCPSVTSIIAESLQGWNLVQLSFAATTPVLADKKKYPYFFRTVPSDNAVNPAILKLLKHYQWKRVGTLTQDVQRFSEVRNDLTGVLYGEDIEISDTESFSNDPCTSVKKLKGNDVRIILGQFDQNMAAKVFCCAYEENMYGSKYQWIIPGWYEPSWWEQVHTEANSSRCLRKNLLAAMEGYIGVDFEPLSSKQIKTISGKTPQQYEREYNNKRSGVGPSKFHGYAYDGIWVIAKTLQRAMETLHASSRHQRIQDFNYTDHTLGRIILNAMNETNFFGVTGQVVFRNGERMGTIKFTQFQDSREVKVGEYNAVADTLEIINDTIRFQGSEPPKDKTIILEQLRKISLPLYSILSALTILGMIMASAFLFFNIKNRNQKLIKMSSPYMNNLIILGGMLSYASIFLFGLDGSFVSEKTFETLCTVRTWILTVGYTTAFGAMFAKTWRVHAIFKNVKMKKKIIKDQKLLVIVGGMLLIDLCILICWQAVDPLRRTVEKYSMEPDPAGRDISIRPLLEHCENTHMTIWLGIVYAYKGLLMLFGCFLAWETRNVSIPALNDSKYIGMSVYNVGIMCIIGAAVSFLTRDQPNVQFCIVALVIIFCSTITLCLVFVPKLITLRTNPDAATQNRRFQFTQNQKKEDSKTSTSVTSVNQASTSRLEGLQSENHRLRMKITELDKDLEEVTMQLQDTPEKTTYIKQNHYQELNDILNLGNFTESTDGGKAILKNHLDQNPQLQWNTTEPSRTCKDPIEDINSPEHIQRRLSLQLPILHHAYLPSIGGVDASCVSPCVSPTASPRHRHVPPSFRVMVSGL
In data set [3] the test system is dentate gyrus (DG) of hippocampal slices. It counts as cell-based, mouse. To be noted: 1 μM.
Data set [4] has the same test system. Description: Paired-pulse depression of the population spike (feedback inhibition) in DG. It counts as cell-based, mouse. To be noted: 1 μM, interstimulus interval 30 ms. The protocol:
Recording of evoked field potentials. A slice was transferred into the recording submerged chamber and superfused with ACSF at a constant rate of 2.5 ml/min at 32° C. Recording electrodes were made of borosilicate glass capillaries (1B150F, World Precision Instruments, Sarasota, Fla.) and were filled with 2M NaCl (resistance 0.3-0.5 MΩ). Monopolar stimulating electrodes were maid of Pt/Ir wires with diameter 25.4 μm (PTT0110, World Precision Instruments, Sarasota, Fla.) and had 100-μm-long exposed tips. […]
The amplitude of the population spike was measured as follows: 1) a line was drawn at the base of the population spike connecting the first and second peaks of the field response; 2) a second line was drawn at the peak of the population spike (i.e. at the peak of the downward deflection); 3) at the peak of the spike, a line was drawn vertically between these two lines to give the amplitude of the population spike. The magnitude of the field excitatory postsynaptic potential (fEPSP) was measured as the initial slope of the linear part of the fEPSP (latencies 0.1-0.9 ms). […]
Effects of GABAB antagonists on pro-epileptic properties in Ts65Dn DG. […] We evaluated the effect of GABAB antagonists on feedback inhibition by measuring paired-pulse depression of the population spike amplitude (PS2/PS1). […]

For data set [5] the test system is unchanged. Put plainly: Spontaneous ictal bursts in high-potassium model of epilepsy in hippocampal slices. To be noted: 1 μM, extracellular potassium 7.5 mM. It counts as cell-based, mouse. The text has this: To evaluate more directly the potential effects of GABAB antagonists on epileptic properties of DG neural circuits, we examined spontaneous ictal bursts in hippocampal slices provoked by an increase in extracellular potassium. […] These changes were greater in Ts65Dn than in 2N slices (p<0.05). […] While the mechanism of the effect is yet to be refined, reduced electrochemical potential for potassium ions and the enhancement of feedback inhibition may both play a role.

The test system of data set [6] is 2N and Ts65Dn mice. Description: Spontaneous locomotor activity in activity box. It counts as in vivo, mouse. To be noted: 0.5 mg/kg i.p. daily, acute (1 week) and chronic (3 weeks). As to the method:
(§1) Behavioral testing. All mice were exposed to the same series of behavioral tests starting at 2-2.5 months of age. Each mouse was handled for 10 min, twice a day, during the 7 days that preceded testing and for 3 days in between tests. Tests for spontaneous locomotor activity and open field were performed before the drug, during the acute (1 week), and during the chronic (3 weeks) phases of the drug administration. Novel object recognition task with a 24 hours delay was performed during the chronic phase (3 weeks) of the drug administration. All behavioral testing took place during the light cycle between 7:00 a.m. and 7:00 p.m. and was performed at room temperature (22° C.). On the day of testing, the mice were left in their home cages in the experimental room for 2 hours for habituation. To minimize olfactory cues from the previous trial, each apparatus was thoroughly cleaned with 10% ethanol after each animal. CGP55845 (0.5 mg/kg) or equivalent volume of saline was injected intraperitoneally once a day during 3 weeks. Body weight was measured weekly. […]
Spontaneous locomotor activity. Spontaneous locomotor activity was monitored using square Plexiglas activity chambers (43.2×43.2×20 cm) and activity monitor software (Med Associates Activity Monitor, version 5.93.773). […] Distance moved, velocity, resting time, and times spent in pre-defined areas of the arena were recorded. […]

For data set [7], the system named is 2N and Ts65Dn mice. Description: Open field activity. It counts as in vivo, mouse. To be noted: 0.5 mg/kg i.p. daily, acute (1 week) and chronic (3 weeks). The protocol:
as §1, with “On the day of testing, the mice were left in their home cages in the experimental room for 2 hours for habituation. To minimize olfactory cues from the previous trial, each apparatus was thoroughly cleaned with 10% ethanol after each animal. CGP55845 (0.5 mg/kg) or equivalent volume of saline was injected intraperitoneally once a day during 3 weeks.” left out
Open field activity. Open field activity was recorded with a video camera in the arena of white squared box (76×76×50 cm) and analyzed with an automated videotracking system EthoVision Pro 3.1 (Noldus Information Technology, Wageningen, The Netherlands). Mice were placed in the center of the open field arena under dim ambient light conditions and activity was monitored for 10 min in a single trial. […] Results were averaged for total distance traveled, number of entries and the time spent in the pre-determined areas (the center of the arena, the periphery, i.e. area extending 12 cm from the center, and the border, which included the four corners).

The subject of data set [8] is 2N and Ts65Dn mice. Description: Novel object recognition with 24 h delay. To be noted: 0.5 mg/kg i.p. daily, 3 weeks. It counts as in vivo, mouse. As to the method: (§2) Behavioral testing. All mice were exposed to the same series of behavioral tests starting at 2-2.5 months of age. Each mouse was handled for 10 min, twice a day, during the 7 days that preceded testing and for 3 days in between tests. Tests for spontaneous locomotor activity and open field were performed before the drug, during the acute (1 week), and during the chronic (3 weeks) phases of the drug administration. Novel object recognition task with a 24 hours delay was performed during the chronic phase (3 weeks) of the drug administration. All behavioral testing took place during the light cycle between 7:00 a.m. and 7:00 p.m. and was performed at room temperature (22° C.). On the day of testing, the mice were left in their home cages in the experimental room for 2 hours for habituation. To minimize olfactory cues from the previous trial, each apparatus was thoroughly cleaned with 10% ethanol after each animal. CGP55845 (0.5 mg/kg) or equivalent volume of saline was injected intraperitoneally once a day during 3 weeks. Body weight was measured weekly. The body weight was lower in Ts65Dn than in 2N mice, and it was not affected by the treatment (Supplementary FIG. S6). All behavioral tests and procedures were performed by operators who were blind to the genotypes and drug treatment.
Novel object recognition. The Bevins and Besheer protocol (Bevins and Besheer, 2006) for two sample objects with one environment was used to study learning and memory with 24 hours delays in 2N and Ts65Dn mice. Before testing, mice were habituated in a black Plexiglas chamber (31×24×27 cm) during 10 min for 2 consecutive days under dim ambient light conditions. Activity of mice during the object recognition task was recorded with a video camera. Two objects (A and B) consistent with height and volume, but different in shape and appearance were used in this test. […] The amount of time spent exploring each object (nose sniffing and head orientation within <1.0 cm) was recorded and evaluated by an operator, who was blind to both the phenotype and the treatment. […]

Data set [9] can be described thus: Body weight during treatment. To be noted: 0.5 mg/kg i.p. once a day during 3 weeks; 2N and Ts65Dn mice. It counts as in vivo, mouse. As to the method:
as §2

Data set [10] deals with postsynaptic GABAB receptors (Homo sapiens, UniProt Q9UBS5). To be noted: Pozza et al., 1999; read-out: IC50 for postsynaptic receptors in hippocampal slices; cited from earlier work.
postsynaptic GABAB receptors, sequence (Q9UBS5 20-961): as the sequence (Q9UBS5 20-961) above
postsynaptic GABAB receptors, sequence (O75899 42-941 partner): as the sequence (O75899 42-941 partner) above
The target in data set [11] is presynaptic GABAB receptors. To be noted: Pozza et al., 1999; read-out: IC50 for presynaptic receptors in hippocampal slices; cited from earlier work.
presynaptic GABAB receptors, sequence (Q9UBS5 20-961): as the sequence (Q9UBS5 20-961) above
presynaptic GABAB receptors, sequence (O75899 42-941 partner): as the sequence (O75899 42-941 partner) above

Turning to picrotoxin, the “deficits in Ts65Dn hippocampal LTP” value in the data set with Ts65Dn hippocampal LTP is “reverse”.
For the compound `CCCCP(=O)(O)CCCN` [CGP36742], the “levels of mRNAs for NGF and BDNF” value with mRNAs for NGF and BDNF was “increased”.
`CNCCC(Oc1ccc(C(F)(F)F)cc1)c1ccccc1` (stereo not drawn) [fluoxetine]: the “effect on LTP” value in data set [1] (10 μM, Ts65Dn DG) is listed as “enhanced LTP in the Ts65Dn DG”. Besides, the IC50 in data set [2] is approximately 10000 nM.
In the case of `C[C@H](NC[C@H](O)CP(=O)(O)Cc1ccccc1)c1ccc(Cl)c(Cl)c1.Cl` [CGP 55845A], the “baclofen-induced postsynaptic hyperpolarization and depression of evoked IPSPs and EPSPs” value on GABAB receptor is “blocks”.
`CCOC(OCC)P(=O)(O)CCCNCc1ccc(Cl)c(Cl)c1` [CGP52432]: in data set [1] (1.0 μM, Ts65Dn slices), the “effect on LTP” value was “enhanced LTP in the Ts65Dn DG”. Moreover, in data set [3], the “NMDA receptor-mediated component of the tetanus-evoked field responses” value was “enhanced the NMDA receptor-mediated responses”, the “NMDA receptor-mediated component of the tetanus-evoked responses” value was “restored to 2N levels” and the tetanus-evoked field responses result is “significantly increased”. Further, the PS2/PS1 ratio in data set [4] (2N slices, baseline 1.09±0.18) was found to be 0.93±0.25. In addition, the PS2/PS1 ratio in [4] (Ts65Dn slices, baseline 0.71±0.16) is on record as 0.59±0.17.
With CGP55845, the “effect on LTP” value in data set [1] (0.1 μM, Ts65Dn slices) was “enhanced LTP in Ts65Dn”; in data set [1] (1.0 μM, 2N slices), “enhanced LTP in both Ts65Dn and 2N slices”; in data set [1] (1.0 μM, Ts65Dn slices), “enhanced LTP in both Ts65Dn and 2N slices”. Moreover, the “frequency of spontaneous ictal bursts” value in [5] (2N and Ts65Dn DG, p=0.8) is “did not affect”. Besides, the “amplitude of burst-associated field potentials” value in data set [5] (change greater in Ts65Dn than 2N, p<0.01) is recorded as “significantly reduced”. The spontaneous locomotor activity entry in the data set on 2N and Ts65Dn mice [6] is recorded as “did not affect”. In the data set on 2N and Ts65Dn mice [7], the “open field parameters (velocity, distance, time in regions)” value is given as “no significant effect”. For the same compound, the “exploration habits (total time of exploration of objects)” value in the data set on 2N and Ts65Dn mice [8] (2N and Ts65Dn mice) is reported as “no effect”. Besides, the “improvement of memory in novel object recognition” value in the data set on 2N and Ts65Dn mice [8] (2N mice) was “observed only in Ts65Dn mice”. Further, the discrimination index entry in the data set with 2N and Ts65Dn mice [8] (Ts65Dn mice vs Ts65Dn vehicle control, p<0.05) is “significantly higher”. Also, the body weight entry in data set [9] was “not affected”. For the same compound, the IC50 in [10] is 110 nM; in [11], 740 nM.
